Reference: ChEMBL document CHEMBL5512654, “Discovery of novel Thymol-TPP antibiotics that eradicate MRSA persisters” (Eur J Med Chem, 2024)
Converted amounts (≈) assume the structure as drawn. The source made the active and inactive calls. The calls are words filed in the database; no cut-off is given here.

What was measured:
Staphylococcus aureus [1] = experiment: Antibacterial activity against Staphylococcus aureus ATCC 43300 assessed as inhibition of bacterial growth measured after 18 hrs by microplate reader; assay type: functional; conditions: read-out: MIC100
Staphylococcus aureus [2] = experiment: Antibacterial activity against methicillin-resistant Staphylococcus aureus USA 3390 assessed as inhibition of bacterial growth measured after 18 hrs by microplate reader; assay type: functional; conditions: read-out: MIC100
Staphylococcus aureus [3] = experiment: Antibacterial activity against methicillin-resistant Staphylococcus aureus USA 300 assessed as inhibition of bacterial growth measured after 18 hrs by microplate reader; assay type: functional; conditions: read-out: MIC100
Pseudomonas aeruginosa [4] = experiment: Antibacterial activity against Pseudomonas aeruginosa 535 assessed as inhibition of bacterial growth measured after 18 hrs by microplate reader; assay type: functional
Acinetobacter baumannii [5] = experiment: Antibacterial activity against Acinetobacter baumannii ATCC 19606 assessed as inhibition of bacterial growth measured after 18 hrs by microplate reader; assay type: functional
Escherichia coli [6] = experiment: Antibacterial activity against Escherichia coli ATCC 25922 assessed as inhibition of bacterial growth measured after 18 hrs by microplate reader; assay type: functional; conditions: read-out: MIC100
Escherichia coli [7] = experiment: Antibacterial activity against Escherichia coli 53328 assessed as inhibition of bacterial growth measured after 18 hrs by microplate reader; assay type: functional; conditions: read-out: MIC100
Klebsiella pneumoniae [8] = experiment: Antibacterial activity against Klebsiella pneumonia 3026 assessed as inhibition of bacterial growth measured after 18 hrs by microplate reader; assay type: functional
[9] = Cytotoxicity against human L02 cells incubated for 72 hrs by MTT dye reduction assay; assay type: toxicity, cell-based
Pseudomonas aeruginosa [10] = experiment: Antibacterial activity against Pseudomonas aeruginosa ATCC 27853 assessed as inhibition of bacterial growth measured after 18 hrs by microplate reader; assay type: functional
Acinetobacter baumannii [11] = experiment: Antibacterial activity against Acinetobacter baumannii ATCC 1318 assessed as inhibition of bacterial growth measured after 18 hrs by microplate reader; assay type: functional
Klebsiella pneumoniae [12] = experiment: Antibacterial activity against Klebsiella pneumonia ATCC 700603 assessed as inhibition of bacterial growth measured after 18 hrs by microplate reader; assay type: functional
Staphylococcus aureus [13] = experiment: Antibacterial activity against methicillin-resistant Staphylococcus aureus USA 3390 assessed as resistance development measured after 30 generations; assay type: functional, organism-based
Staphylococcus aureus [14] = experiment: Bactericidal activity against methicillin-resistant Staphylococcus aureus USA 3390 assessed as reduction in CFU at 4 to 8 times of MIC concentration measured after 24 hrs by time-kill kinetics assay; assay type: functional, organism-based
Staphylococcus aureus [15] = experiment: Bactericidal activity against methicillin-resistant Staphylococcus aureus USA 3390 assessed as reduction in CFU at 1 times of MIC concentration measured for short time by time-kill kinetics assay; assay type: functional, organism-based

Row | Structure (SMILES) | MIC (Staphylococcus aureus [1]) | MIC (Staphylococcus aureus [2]) | MIC (Staphylococcus aureus [3]) | also measured
1 | Cc1ccccc1-c1cc(C(C)C)c(O)cc1C | 8 µg/mL (≈ 33.3 µM) | 16 µg/mL (≈ 66.6 µM) | 8 µg/mL (≈ 33.3 µM) | 
2 | Cc1cc(O)c(C(C)C)cc1-c1cccc(F)c1 | 16 µg/mL (≈ 65.5 µM) | 16 µg/mL (≈ 65.5 µM) | 16 µg/mL (≈ 65.5 µM) | 
3 | Cc1cc(O)c(C(C)C)cc1-c1ccc(C(F)(F)F)cc1 | 4 µg/mL (≈ 13.6 µM) | 8 µg/mL (≈ 27.2 µM) | 4 µg/mL (≈ 13.6 µM) | 
4 | Cc1cc(O)c(C(C)C)cc1-c1ccc(O)cc1 | > 64 µg/mL | > 64 µg/mL | > 64 µg/mL | 
5 | Cc1cc(OC(=O)CCCCCCCCC[P+](c2ccccc2)(c2ccccc2)c2ccccc2)c(C(C)C)cc1-c1ccccc1.[Br-] |  |  |  | MIC (Pseudomonas aeruginosa [4]; read-out: MIC100): 32 µg/mL; MIC (Acinetobacter baumannii [5]; read-out: MIC100): 32 µg/mL; MIC (Escherichia coli [6]): 4 µg/mL; MIC (Escherichia coli [7]): 64 µg/mL; MIC (Klebsiella pneumoniae [8]; read-out: MIC100): > 64 µg/mL; IC50 at 72 h [9]: 8.67 µg/mL; MIC (Pseudomonas aeruginosa [10]; read-out: MIC100): 32 µg/mL; MIC (Acinetobacter baumannii [11]; read-out: MIC100): 16 µg/mL; MIC (Klebsiella pneumoniae [12]; read-out: MIC100): 32 µg/mL
6 | Cc1cc(O)c(C(C)C)cc1-c1ccc(Cl)cc1 | 8 µg/mL (≈ 30.7 µM) | 8 µg/mL (≈ 30.7 µM) | 4 µg/mL (≈ 15.3 µM) | 
7 | Cc1cc(O)c(C(C)C)cc1-c1ccncc1 | 128 µg/mL (≈ 563 µM) | 128 µg/mL (≈ 563 µM) | 128 µg/mL (≈ 563 µM) | 
8 | Cc1cc(O)c(C(C)C)cc1-c1ccc(C#N)cc1 | 16 µg/mL (≈ 63.7 µM) | 32 µg/mL (≈ 127 µM) | 16 µg/mL (≈ 63.7 µM) | 
9 | Cc1cc(OC(=O)CCCCCCCC[P+](c2ccccc2)(c2ccccc2)c2ccccc2)c(C(C)C)cc1-c1ccccc1.[Br-] |  |  |  | MIC (Pseudomonas aeruginosa [4]; read-out: MIC100): 32 µg/mL; MIC (Acinetobacter baumannii [5]; read-out: MIC100): 16 µg/mL; MIC (Escherichia coli [6]): 4 µg/mL; MIC (Escherichia coli [7]): 16 µg/mL; MIC (Klebsiella pneumoniae [8]; read-out: MIC100): 64 µg/mL; IC50 at 72 h [9]: 13.2 µg/mL; MIC (Pseudomonas aeruginosa [10]; read-out: MIC100): 64 µg/mL; MIC (Acinetobacter baumannii [11]; read-out: MIC100): 8 µg/mL; MIC (Klebsiella pneumoniae [12]; read-out: MIC100): 64 µg/mL
10 | Cc1cc(O)c(C(C)C)cc1-c1ccccc1Cl | 8 µg/mL (≈ 30.7 µM) | 8 µg/mL (≈ 30.7 µM) | 8 µg/mL (≈ 30.7 µM) | 
11 | Cc1cc(OC(=O)CCCCCC[P+](c2ccccc2)(c2ccccc2)c2ccccc2)c(C(C)C)cc1-c1ccccc1.[Br-] |  |  |  | MIC (Pseudomonas aeruginosa [4]; read-out: MIC100): > 64 µg/mL; MIC (Acinetobacter baumannii [5]; read-out: MIC100): 8 µg/mL; MIC (Escherichia coli [6]): 8 µg/mL; MIC (Escherichia coli [7]): 8 µg/mL; MIC (Klebsiella pneumoniae [8]; read-out: MIC100): 8 µg/mL; IC50 at 72 h [9]: 18.8 µg/mL; MIC (Pseudomonas aeruginosa [10]; read-out: MIC100): > 64 µg/mL; MIC (Acinetobacter baumannii [11]; read-out: MIC100): 8 µg/mL; MIC (Klebsiella pneumoniae [12]; read-out: MIC100): 8 µg/mL
12 | Cc1cc(O)c(C(C)C)cc1-c1cccc(C#N)c1 | 32 µg/mL (≈ 127 µM) | 8 µg/mL (≈ 31.8 µM) | 16 µg/mL (≈ 63.7 µM) | 
13 | O=C(O)c1cn(C2CC2)c2cc(N3CCNCC3)c(F)cc2c1=O [CIPROFLOXACIN] | 2 µg/mL (≈ 6.04 µM) | 1 µg/mL (≈ 3.02 µM) | 1 µg/mL (≈ 3.02 µM) | MIC (Pseudomonas aeruginosa [4]; read-out: MIC): 1 µg/mL (≈ 3.02 µM); MIC (Acinetobacter baumannii [5]; read-out: MIC): 0.5 µg/mL (≈ 1.51 µM); Activity (Staphylococcus aureus [13]): Active; Activity (Staphylococcus aureus [14]): Active; MIC (Klebsiella pneumoniae [8]; read-out: MIC): 0.06 µg/mL (≈ 0.181 µM); Activity (Staphylococcus aureus [15]): Active; MIC (Pseudomonas aeruginosa [10]; read-out: MIC): 1 µg/mL (≈ 3.02 µM); MIC (Acinetobacter baumannii [11]; read-out: MIC): 1 µg/mL (≈ 3.02 µM); MIC (Klebsiella pneumoniae [12]; read-out: MIC): 0.12 µg/mL (≈ 0.362 µM)
14 | Cc1cc(O)c(C(C)C)cc1-c1ccccc1C#N | 16 µg/mL (≈ 63.7 µM) | 8 µg/mL (≈ 31.8 µM) | 8 µg/mL (≈ 31.8 µM) | 
15 | Cc1cc(O)c(C(C)C)cc1-c1cccc(O)c1 | 32 µg/mL (≈ 132 µM) | 32 µg/mL (≈ 132 µM) | 32 µg/mL (≈ 132 µM) | 
16 | Cc1cc(O)c(C(C)C)cc1-c1cccc(C(=O)O)c1 | 8 µg/mL (≈ 29.6 µM) | 16 µg/mL (≈ 59.2 µM) | 8 µg/mL (≈ 29.6 µM) | 
17 | Cc1ccc(C(C)C)c(O)c1 [THYMOL] | 128 µg/mL (≈ 852 µM) | 256 µg/mL (≈ 1700 µM) | 128 µg/mL (≈ 852 µM) | 
18 | COc1ccc(-c2cc(C(C)C)c(O)cc2C)cc1 | 16 µg/mL (≈ 62.4 µM) | 16 µg/mL (≈ 62.4 µM) | 32 µg/mL (≈ 125 µM) | 
19 | Cc1cc(O)c(C(C)C)cc1-c1ccccc1F | 8 µg/mL (≈ 32.7 µM) | 16 µg/mL (≈ 65.5 µM) | 16 µg/mL (≈ 65.5 µM) | 
